Measurements: patent US20240043420A1, “7-AZAINDOLE COMPOUNDS FOR INHIBITION OF BCR-ABL TYROSINE KINASES” (EnLiven Therapeutics, Inc., priority 2020, published 2024)
Read-outs that look alike come from different tables or passages of the source.

Key:
[1] = molecular target: T1, ABL1 (Homo sapiens, UniProt P00519); experiment: Luminescence-based ABL kinase assay (ADP-Glo, 300 μM ATP); assay type: biochemical
T1 construct: purchased Carna Biosciences
Method: (§1) Kinase activity of ABL1 was measured using the ADP-Glo system (Promega), which measures formation of ADP using a luminescence-based method. Compounds were serially diluted in DMSO. 20 nL of compound or DMSO only (high control, HC) were added to a 384-well plate (OptiPlate-384, PerkinElmer) using an Echo550 liquid handler (Labcyte). 15 μL of kinase solution (10 mM MgCl2, 0.01% Brij-35, 2 mM DTT, 0.05% BSA, 1 mM EGTA, 50 mM HEPES pH 7.5, and 3.325 nM ABL1 [Carna Biosciences]) were added to each well of the 384-well plate containing the compounds. No enzyme control wells were included (low control, LC). The plate was incubated at room temperature for 30 minutes. 5 μL of a second solution containing 10 mM MgCl2, 0.01% Brij-35, 2 mM DTT, 0.05% BSA, 1 mM EGTA, 50 mM HEPES pH 7.5, 6 μM Peptide 2 (Perkin Elmer, Cat No 760346), and 1.2 mM ATP were added to each well to start the kinase reaction. The plate was incubated for 90 minutes at room temperature. 20 μL of ADP-Glo reagent (Promega) were then added to each well and the plate was incubated for 40 minutes at room temperature. 40 μL of kinase detection reagent (Promega) was added to each well and the plate was incubated for an additional 45 minutes at room temperature. During this step, ADP was converted to ATP, a substrate for luciferase, to produce luminescence signal. Luminescence was measured on an Envision plate reader (Perkin Elmer). Luminescence signal positively correlates with kinase activity. The percent kinase activity was calculated as follows: percent kinase activity=100×(Lumsample−LumLC)/(LumHC−LumLC). As noted above, DMSO only and no enzyme wells were used as high and low controls, respectively. IC50 values were calculated using the XLFit software.

[2] = tested on: HL60 cells; experiment: HL60 cell proliferation assay (CellTiter-Glo); assay type: cell-based; details: CellTiter-Glo viability, read-out: Cell Line (IC50, nM) HL60
Method: (§2) K562 and HL60 cells, cultured in Iscove's Modified Dulbecco's Media (IMDM) supplemented with 10% FBS, were harvested at 50-80% confluency and plated at 2,000 cells per well (K562) or 1,500 cells per well (HL60) in 384-well tissue culture plates. A subset of wells contained media only (low control, LC). Compounds were serially diluted in DMSO. 40 nL of compound or DMSO only (high control, HC) were added to each well using an Echo 550 liquid handler (Labcyte). The plates were placed in a 37° C. incubator with 5% CO2 for 72 hours. Cell viability was measured using a CellTiter-Glo luminescent cell viability assay (Promega), which allows for relative quantification of metabolically active cells by luminescence-based measurements of intracellular ATP concentrations. Briefly, plates were removed from the incubator and equilibrated for 15 minutes at room temperature prior to the addition of 40 μL of CellTiter-Glo reagent. Plates were then incubated for 30 minutes at room temperature. Luminescence was measured using an EnSpire plate reader (Perkin Elmer). As noted above, luminescence values from wells with DMSO only or media without cells were used as high and low controls (HC and LC), respectively. Normalized percent viability was calculated as follows: percent viability=100×(Lumsample−LumLC)/(LumHC−LumLC).

[3] = tested on: K562 cells; experiment: K562 cell proliferation assay (CellTiter-Glo); assay type: cell-based; details: CellTiter-Glo viability, read-out: Cell Line (IC50, nM) K562
Method: as §2

[4] = molecular target: ABL1 (T315I) (Homo sapiens, UniProt P00519, T315I); experiment: Luminescence-based ABL kinase assay (ADP-Glo, 300 μM ATP), T315I mutant; assay type: biochemical
Method: as §1

Structure (SMILES)	IC50 [1] [nM]	IC50 ([2]; Homo sapiens, HL-60, 72 h) [nM]	IC50 ([3]; Homo sapiens, K562, 72 h) [nM]	IC50 [4] [nM]	IC50 ([3]; 72 hours) [nM]	IC50 ([2]; 72 hours) [nM]
COc1ccccc1-c1c[nH]c2nc(NC(=O)[C@@H]3C[C@@H]3CN3CCN(C)CC3)ccc12 (racemic) [Compound 41, cis-N-[3-(2-methoxyphenyl)-1H-pyrrolo[2,3-b]pyridin-6-yl]-2-[(4-methylpiperazin-1-yl)methyl]cyclopropane-1-carboxamide]	106	> 10000	654	26.8		
COc1ccccc1-c1c[nH]c2nc(NC(=O)[C@@H]3C[C@@H]3CCO)ccc12 (relative stereo) [Compound 105, cis-2-(2-hydroxyethyl)-N-(3-(2-methoxyphenyl)-1H-pyrrolo[2,3-b]pyridin-6-yl)cyclopropanecarboxamide]	109	> 10000	489	19.9		
COc1ccccc1-c1c[nH]c2nc(NC(=O)[C@H]3C[C@H]3C#N)ccc12 (relative stereo) [Compound 106, cis-2-cyano-N-[3-(2-methoxyphenyl)-1H-pyrrolo[2,3-b]pyridin-6-yl]cyclopropane-1-carboxamide]	78.1	> 10000	275	26.1		
COc1ccccc1-c1c[nH]c2nc(NC(=O)[C@H]3C[C@@H]3CO)ccc12 (relative stereo) [Compound 108, trans-2-(hydroxymethyl)-N-(3-(2-methoxyphenyl)-1H-pyrrolo[2,3-b]pyridin-6-yl)cyclopropane-1-carboxamide]	78.6	> 10000	419	17.8		
COc1ccccc1-c1c[nH]c2nc(NC(=O)C3CC3)ccc12 [Compound 1, N-(3-(2-methoxyphenyl)-1H-pyrrolo[2,3-b]pyridin-6-yl)cyclopropanecarboxamide]	37.9	> 10000	101	11.3		
COc1ccccc1-c1c[nH]c2nc(NC(=O)[C@H]3C[C@H]3F)ccc12 [Compound 2, (1R,2R)-2-fluoro-N-(3-(2-methoxyphenyl)-1H-pyrrolo[2,3-b]pyridin-6-yl)cyclopropane-1-carboxamide]	22.2	> 10000	176	9.96		
Cc1ccccc1-c1c[nH]c2nc(NC(=O)C3CC3)ccc12 [Compound 4, N-[3-(2-methylphenyl)-1H-pyrrolo[2,3-b]pyridin-6-yl]cyclopropanecarboxamide]	113	> 10000	223	32.3		
O=C(Nc1ccc2c(-c3ccccc3F)c[nH]c2n1)C1CC1 [Compound 5, N-[3-(2-fluorophenyl)-1H-pyrrolo[2,3-b]pyridin-6-yl]cyclopropanecarboxamide]	119	> 10000	713	32.9		
COc1cccc(OC)c1-c1c[nH]c2nc(NC(=O)C3CC3)ccc12 [Compound 45, N-[3-(2,6-dimethoxyphenyl)-1H-pyrrolo[2,3-b]pyridin-6-yl]cyclopropanecarboxamide]		> 10000	52.7			
COc1nc2nccn2cc1-c1c[nH]c2nc(NC(=O)[C@@H]3C[C@@H]3F)ccc12 [Compound 128, (1S,2S)-2-fluoro-N-(3-(7-methoxyimidazo[1,2-a]pyrimidin-6-yl)-1H-pyrrolo[2,3-b]pyridin-6-yl)cyclopropane-1-carboxamide]	24.9			97.1		
COc1cccc(OC)c1-c1c[nH]c2nc(NC(=O)NCC3CNC3)ccc12 [Compound 129, 1-(azetidin-3-ylmethyl)-3-(3-(2,6-dimethoxyphenyl)-1H-pyrrolo[2,3-b]pyridin-6-yl)urea]	32.9			35.8		
COc1c(-c2c[nH]c3nc(NC(=O)[C@@H]4C[C@@H]4F)ccc23)ccc2ncnn12 [Compound 134, (1S,2S)-2-fluoro-N-(3-[5-methoxy-[1,2,4]triazolo[1,5-a]pyridin-6-yl]-1H-pyrrolo[2,3-b]pyridin-6-yl)cyclopropane-1-carboxamide]	64.8			227		
COc1cc2scnc2cc1-c1c[nH]c2nc(NC(=O)NCCN3CCNCC3)ccc12 [Compound 140, 3-[3-(6-methoxy-1,3-benzothiazol-5-yl)-1H-pyrrolo[2,3-b]pyridin-6-yl]-1-[2-(piperazin-1-yl)ethyl]urea]	30.6			82.5		
COc1nc2[nH]ccc2cc1-c1c[nH]c2nc(NC(=O)[C@H]3C[C@@H]3F)ccc12 [Compound 141, (1R,2S)-2-fluoro-N-(6′-methoxy-1H,1′H-[3,5′-bipyrrolo[2,3-b]pyridin]-6-yl)cyclopropane-1-carboxamide]	45.5			31.2		
COc1nc2[nH]ncc2cc1-c1c[nH]c2nc(NC(=O)[C@@H]3C[C@@H]3F)ccc12 [Compound 144, (1S,2S)-2-fluoro-N-(3-[6-methoxy-1H-pyrazolo[3,4-b]pyridin-5-yl]-1H-pyrrolo[2,3-b]pyridin-6-yl)cyclopropane-1-carboxamide]		> 10000	32			

More lines, now with the values ahead:

IC50 [1] [nM]	IC50 ([2]; Homo sapiens, HL-60, 72 h) [nM]	IC50 ([3]; Homo sapiens, K562, 72 h) [nM]	IC50 [4] [nM]	IC50 ([3]; 72 hours) [nM]	IC50 ([2]; 72 hours) [nM]	Structure (SMILES)
10.6			15	21.5		COc1cccc(OC)c1-c1c[nH]c2nc(NC(=O)C3CC3CCN(C)C)ccc12 (single isomer, unassigned) [Example S205, Enantiomer 1, N-(3-(2,6-dimethoxyphenyl)-1H-pyrrolo[2,3-b]pyridin-6-yl)-2-(2-(dimethylamino)ethyl)cyclopropane-1-carboxamide]
15			20.9	55.3		COc1cccc(OC)c1-c1c[nH]c2nc(NC(=O)C3CC3CCN(C)C)ccc12 (single isomer, unassigned) [Example S205, Enantiomer 2, N-(3-(2,6-dimethoxyphenyl)-1H-pyrrolo[2,3-b]pyridin-6-yl)-2-(2-(dimethylamino)ethyl)cyclopropane-1-carboxamide]
	> 10000			24.9		COc1nccc(OC2CC2)c1-c1c[nH]c2nc(NC(=O)C3CC3OCCN(C)C)ccc12 (single isomer, unassigned) [Example S220, Enantiomer 1, N-(3-(4-cyclopropoxy-2-methoxypyridin-3-yl)-1H-pyrrolo[2,3-b]pyridin-6-yl)-2-(2-(dimethylamino)ethoxy)cyclopropane-1-carboxamide]
				57.3	> 10000	COc1nccc(OC2CC2)c1-c1c[nH]c2nc(NC(=O)C3CC3OCCN(C)C)ccc12 (single isomer, unassigned) [Example S220, Enantiomer 2, N-(3-(4-cyclopropoxy-2-methoxypyridin-3-yl)-1H-pyrrolo[2,3-b]pyridin-6-yl)-2-(2-(dimethylamino)ethoxy)cyclopropane-1-carboxamide]
	6590			11.1		COc1nccc(OC2CC2)c1-c1c[nH]c2nc(NC(=O)C3CC3OCCN3CCC3)ccc12 (single isomer, unassigned) [Example S221, Enantiomer 1, 2-(2-(azetidin-1-yl)ethoxy)-N-(3-(4-cyclopropoxy-2-methoxypyridin-3-yl)-1H-pyrrolo[2,3-b]pyridin-6-yl)cyclopropane-1-carboxamide]
				39.7	8660	COc1nccc(OC2CC2)c1-c1c[nH]c2nc(NC(=O)C3CC3OCCN3CCC3)ccc12 (single isomer, unassigned) [Example S221, Enantiomer 2, 2-(2-(azetidin-1-yl)ethoxy)-N-(3-(4-cyclopropoxy-2-methoxypyridin-3-yl)-1H-pyrrolo[2,3-b]pyridin-6-yl)cyclopropane-1-carboxamide]
